We go through one compound from patent publication US11413295B2, “Oral preparation of obeticholic acid” (Intercept Pharmaceuticals, Inc., priority 2016, dated 2022).

Values after ≈ are worked out from the molar mass of the structure shown. Read-outs that look alike come from different tables or passages of the source.

Data set [1] can be described thus: Obeticholic acid solubility in various test solutions. In kind it is physicochemical. The following applies: read-out: Dissolved concentration.
A short description of data set [2]: Chemical stability: obeticholic acid dimer production by HPLC (Test Example 3). In kind it is physicochemical. The method, then: The following assessments were carried out to see whether, in cases where the amorphous form of obeticholic acid was used, there were any changes in chemical stability even after wet granulation. Specifically, measurements were taken of the amounts in which obeticholic acid dimers were produced (referred to in Patent Document 2 as “Impurity 6,” “3α (3α, 7α-dihydroxy-6α-ethyl-5β-cholan-24-oyloxy)-7α-hydroxy-6α-ethyl-5β-cholan-24-oic acid,” and “6ECDCA dimer”), which were confirmed to have a high propensity to increase in the preparation process and stability tests among known related substances of obeticholic acid disclosed in Patent Document 2, for example.
Test tubes containing the obeticholic acid prepared in Example 19 and the obeticholic acid 20 mg FC tablets of Example 4 were stored under the following conditions. The amounts in which obeticholic acid dimer was produced before (initial) and after storage were measured in accordance with Test Example 3. […]
4 weeks at 60° C. (closed)
Acetonitrile/water (9/1) was added in an amount of exactly 10 mL to test tubes that had been retrieved from storage, and the contents were ultrasonically treated to extract the obeticholic acid. Following centrifugation (10 min at 3000 rpm), the supernatant was made into samples for HPLC assay (500 μg/mL obeticholic acid).
One tablet containing 20 mg obeticholic acid (per tablet) that had been retrieved from storage was introduced into a 40 mL graduated measuring flask. Acetonitrile/water (9/1) was added to the graduated measuring flask, the contents were ultrasonically treated (10 min), and it was confirmed that the tablet had disintegrated. The contents were thoroughly shaken (60 min at 300 rpm) using a shaker, and were again ultrasonically treated to extract the obeticholic acid. Acetonitrile/water (9/1) were added to a constant volume, followed by centrifugation (10 min at 3000 rpm), and the supernatant was made into samples for HPLC assay (500 μg/mL).
50 mg of obeticholic acid was weighed out into a 100 mL graduated measuring flask and dissolved using acetonitrile/water (9/1) (500 μg/mL). The resulting solution was diluted with acetonitrile/water (9/1) to prepare 15.0 μg/mL (3.0%), 5.0 μg/mL (1.0%), and 0.25 μg/mL (0.05%) standard solutions.
The above three standard solutions were used to produce a calibration curve, and the obeticholic acid dimer contained in the sample solutions was quantified. The conditions of analysis are shown below.
Detector: Charged particle detector
Column: by Sigma-Aldrich, SUPELCO Discovery C8 (particle size: 5 μm; internal
Mobile phase: Acetonitrile/methanol/acetic acid aqueous solution (pH 3.0) mixture (8/1/1)

On to `CC[C@H]1[C@@H](O)[C@@H]2[C@H](CC[C@]3(C)[C@@H]([C@H](C)CCC(=O)O)CC[C@@H]23)[C@@]2(C)CC[C@@H](O)C[C@@H]12` [Obeticholic acid, 6α-ethyl-3α, 7 α-dihydroxy-5β-cholan-24-oic acid], for which the solubility is 4.07 µg/mL (≈ 9.68 µM) in data set [1] (JP1, pH 1.2, simulated gastric fluid); 306 µg/mL (≈ 729 µM) in data set [1] (JP2, pH 6.8, aqueous buffer); 4.43 µg/mL (≈ 10.5 µM) in data set [1] (aqueous buffer, pH 3.0 McIlvaine buffer); 4.66 µg/mL (≈ 11.1 µM) in data set [1] (aqueous buffer, pH 4.0 McIlvaine buffer); 11.4 µg/mL (≈ 27.1 µM) in data set [1] (aqueous buffer, pH 5.0 McIlvaine buffer); 60.6 µg/mL (≈ 144 µM) in data set [1] (aqueous buffer, pH 6.0 McIlvaine buffer). Moreover, the solubility in data set [1] (water) amounted to 21.4 µg/mL (≈ 51 µM). Also, the “Amount of obeticholic acid dimer production” value in data set [2] (50° C., 85% RH open 4 W) amounted to 0.83%; in data set [2] (60° C. closed 4 W), 0.81%; in data set [2] (Initial), 0.04%. Further, the “Increase in obeticholic acid dimer from initial product” value in data set [2] (50° C., 85% RH open 4 W) came out at 0.79%; in data set [2] (60° C. closed 4 W), 0.77%.
